Like-named read-outs stand apart in the source and are kept apart here.
Legend:
[1] = biological target: T1, Keap1 Kelch domain (321-609) / TAMRA-labeled 16mer NRF2 peptide (ETGE motif) (Homo sapiens, UniProt Q14145); assay: NRF2-Keap1 FP Assay (Keap1 Kelch fluorescence polarization); assay type: binding; conditions: 20 nM Keap1 (321-609), 8 nM Tamra labeled peptide
T1 construct: the Kelch domain (321-609) of Keap1 is used
In short: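 Compound dilutions (3-fold) were incubated 1 hr at room temperature with 20 nM Keap1 Kelch (321-609) and 8 nM TAMRA-labeled ETGE 16mer peptide. Buffer was 50 mM Tris pH 8.0, 100 mM NaCl, 5 mM MgCl2, 1 mM DTT, 2 mM CHAPS, 0.005% BSA. Fluorescence polarization (mP) was normalized to controls and fitted with a four-parameter equation to give pIC50.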

[2] = biological target: T2, full length Keap1 protein / full length NRF2 protein (Homo sapiens, UniProt Q14145); assay: NRF2-Keap1 TR-FRET Assay; assay type: binding; conditions: 25 nM Keap1-FlagHis and 50 nM biotin-NRF2 added
T2 construct: full length NRF2 protein and full length Keap1 protein (Keap1 exists a dimer) are used; His
T2 sequence (Q14145 whole entry): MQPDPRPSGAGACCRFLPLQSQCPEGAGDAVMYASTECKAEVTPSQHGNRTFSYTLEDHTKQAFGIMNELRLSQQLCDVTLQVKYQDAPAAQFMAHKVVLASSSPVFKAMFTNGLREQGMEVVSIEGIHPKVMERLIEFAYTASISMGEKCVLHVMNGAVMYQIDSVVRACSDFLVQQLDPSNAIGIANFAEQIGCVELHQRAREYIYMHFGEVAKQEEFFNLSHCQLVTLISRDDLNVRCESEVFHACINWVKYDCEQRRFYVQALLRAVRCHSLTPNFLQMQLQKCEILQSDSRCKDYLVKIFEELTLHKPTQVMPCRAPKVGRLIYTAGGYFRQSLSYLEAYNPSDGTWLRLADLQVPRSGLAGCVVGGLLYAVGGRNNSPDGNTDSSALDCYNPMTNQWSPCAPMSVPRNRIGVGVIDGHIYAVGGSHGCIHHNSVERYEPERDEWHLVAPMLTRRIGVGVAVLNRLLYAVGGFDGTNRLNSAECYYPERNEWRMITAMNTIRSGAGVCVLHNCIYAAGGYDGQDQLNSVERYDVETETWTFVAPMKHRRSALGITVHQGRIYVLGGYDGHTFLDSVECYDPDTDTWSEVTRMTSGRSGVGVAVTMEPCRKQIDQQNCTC
Text: In the NRF2-Keap1 TR-FRET (time-resolved fluorescence resonance energy transfer) assay, full length NRF2 protein and full length Keap1 protein (Keap1 exists a dimer) are used. The assay detects the ability of compound to displace the binding of FlagHis-tagged Keap1 with biotinylated, Avi-tagged NRF2 protein. Biotin-NRF2 binds to streptavidin-europium (a component of the detection mix) and Keap1-FlagHis is recognized by anti-Flag APC (allophycocyanin) antibody (also a component of the detection mix). If binding occurs between the two proteins, there will be an energy transfer from the Eu+3 (donor) at 615 nm to the APC (acceptor) at 665 nm. A potential Keap1 inhibitor will cause a reduction in the TR-FRET signal by interfering with the binding of Keap1 to NRF2.
One hundred nanoliters of 100× compound dose response curves (serial 3-fold dilutions) in DMSO are stamped using an Echo liquid handling system (Labcyte) into 384-well, low volume, black assay plates (Greiner, #784076), with DMSO in columns 6 and 18. The top concentration of compound is located in columns 1 and 13. All reagents are diluted in assay buffer (50 mM Tris, pH 8.0, 5 mM MgCl2, 100 mM NaCl, 0.005% BSA, 1 mM DTT, and 2 mM CHAPS). The BSA, DTT, and CHAPS are added to the assay buffer on the day of assay. Using a Multidrop Combi (Thermo Electron Corporation) equipped with a metal tip dispenser, 5 ul of 25 nM Keap1-FlagHis protein is added to all wells of the compound plate, with the exception of the wells in column 18. Wells in column 18 receive 5 ul of assay buffer instead. Plates are centrifuged at 500 rpm for 1 minute, covered with a plate lid, and incubated at 37° C. for 2.25 hours. Plates are then removed from the incubator and allowed to cool to RT for 15 minutes. Five microliters of 50 nM biotin-NRF2 protein is then added to all wells of the plates and the plates are spun at 500 rpm for 1 minute, followed by incubating at 4° C. for 1.25 hours. The plates are then allowed to warm to RT for 15 minutes, followed by the addition of 10 ul of detection mix (1 nM Streptavidin Eu+ W1024 and 5 ug/ml mouse anti-DYKDDDDK IgG conjugated to SureLight APC antibody; both from Columbia Biosciences) to all wells. Plates are spun at 500 rpm for 1 minute, incubated for 1 hour at RT, and read on an Envision plate reader using a 320 nm excitation filter and 615 nm and 665 nm emission filters. Compound response (% inhibition) and potency (pIC50) are calculated based on the ratio of the two emissions (665 nm/615 nm) and then the transformed data is normalized against controls in the assay (control 1=1% DMSO in the presence of NRF2 and Keap1 protein and control 2=1% DMSO in the absence of protein). Data analysis is handled using the software package Abase XE (Surrey, United Kingdom). The % inhibition values are calculated from the ratio (transformed) data by the equation: 100−(100*(compound response−average control 2)/(average control 1−average control2)). For calculation of pIC50s, Abase XE uses a four parameter equation. pIC50 is the negative log of the IC50.

[3] = test system: NQO1 specific enzyme activity in BEAS-2B cells (marker for NRF2 activation); assay: BEAS-2B NQO1 MTT Assay; assay type: cell-based; conditions: Homo sapiens, compound incubated 48 hours, read-out: EC50 (NQO1 specific enzyme activity induction)
In short: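 BEAS-2B cells treated with compound for 48 h at 37 °C, then lysed; NQO1 activity in lysates measured kinetically by MTT reduction at A570 over 30 min. pEC50 from 3-parameter fit of ΔOD/min versus log concentration; lysate also taken for Cell Titer Glo.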

T1 sequence (Q14145 321-609): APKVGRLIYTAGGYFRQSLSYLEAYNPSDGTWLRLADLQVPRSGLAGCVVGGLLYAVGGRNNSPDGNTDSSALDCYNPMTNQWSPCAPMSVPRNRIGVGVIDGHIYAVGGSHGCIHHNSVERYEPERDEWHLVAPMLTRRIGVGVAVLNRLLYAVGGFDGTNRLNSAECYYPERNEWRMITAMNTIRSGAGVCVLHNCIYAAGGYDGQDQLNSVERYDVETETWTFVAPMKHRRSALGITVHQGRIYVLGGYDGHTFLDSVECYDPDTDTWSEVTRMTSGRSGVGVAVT

| SMILES | IC50 [1] [nM] | IC50 [2] [nM] | EC50 ([3]; BEAS-2B, 48 h) [nM] | EC50 [3] [nM] |
| --- | --- | --- | --- | --- |
| CCC[C@@H]1CCCCN1C(=O)c1cccc(-c2cc(C)cc(-n3ncc(C(=O)O)c3[C@H]3C[C@@H]3c3cn(C)nn3)c2)c1 (single isomer, unassigned) [Example 156] | 100 to 1000 | 100 to 1000 | 100 to 1000 | – |
| CN(C)C(=O)c1cccc(-c2cccc(-n3ncc(C(=O)O)c3C(F)(F)F)c2)c1F [Example 2, 1-{3-[3-(Dimethylcarbamoyl)-2-fluorophenyl]phenyl}-5-(trifluoromethyl)-1H-pyrazole-4-carboxylic Acid] | 100 to 1000 | 1000 to 10000 | – | 1000 to 10000 |
| CC(C)CN(C)C(=O)c1cccc(-c2cccc(-n3ncc(C(=O)O)c3C3CC3)c2)c1F [Example 4, 5-Cyclopropyl-1-(3-{2-fluoro-3-[methyl(2-methylpropyl)carbamoyl]phenyl}phenyl)-1H-pyrazole-4-carboxylic Acid] | 100 to 1000 | 1000 to 10000 | – | 1000 to 10000 |
| CC1(C)CCCN(C(=O)c2cccc(-c3cccc(-n4ncc(C(=O)O)c4C4CC4)c3)c2F)C1 [Example 6, 5-Cyclopropyl-1-{3-[3-(3,3-dimethylpiperidine-1-carbonyl)-2-fluorophenyl]phenyl}-1H-pyrazole-4-carboxylic Acid] | 10 to 100 | 100 to 1000 | – | 1000 to 10000 |
| O=C(O)c1cnn(-c2cccc(-c3cccc(C(=O)N4CCCCCC4)c3F)c2)c1C1CC1 [Example 7, 1-{3-[3-(azepane-1-carbonyl)-2-fluorophenyl]phenyl}-5-cyclopropyl-1H-pyrazole-4-carboxylic Acid] | 10 to 100 | 1000 to 10000 | – | 1000 to 10000 |
| CCCN(CC1CC1)C(=O)c1cccc(-c2cccc(-n3ncc(C(=O)O)c3C3CC3)c2)c1F [Example 9, 5-Cyclopropyl-1-(3-{3-[(cyclopropylmethyl)(propyl)carbamoyl]-2-fluorophenyl}phenyl)-1H-pyrazole-4-carboxylic Acid] | 10 to 100 | 1000 to 10000 | – | 1000 to 10000 |
| O=C(O)c1cnn(-c2cccc(-c3cccc(C(=O)N4CCCCCC4)c3)c2)c1C1CC1 [Example 10, 1-{3-[3-(Azepane-1-carbonyl)phenyl]phenyl}-5-cyclopropyl-1H-pyrazole-4-carboxylic Acid] | 100 to 1000 | 1000 to 10000 | – | 1000 to 10000 |
| CC(C)Oc1cccc(-c2cccc(-n3ncc(C(=O)O)c3C(F)(F)F)c2)c1 [Example 11, 1-{3-[3-(propan-2-yloxy)phenyl]phenyl}-5-(trifluoromethyl)-1H-pyrazole-4-carboxylic Acid] | 1000 to 10000 | 10000 to 100000 | – | 1000 to 10000 |

Further lines, with some results ahead:

| IC50 [1] [nM] | IC50 [2] [nM] | SMILES | EC50 ([3]; BEAS-2B, 48 h) [nM] | EC50 [3] [nM] |
| --- | --- | --- | --- | --- |
| 100 to 1000 | 10000 to 100000 | CN(C)C(=O)c1cccc(-c2cccc(-n3ncc(C(=O)O)c3C3CCCC3)c2)c1F [Example 1, 5-Cyclopentyl-1-{3-[3-(dimethylcarbamoyl)-2-fluorophenyl]phenyl}-1H-pyrazole-4-carboxylic Acid] | – | 1000 to 10000 |
| 100 to 1000 | 1000 to 10000 | CN(C(=O)c1cccc(-c2cccc(-n3ncc(C(=O)O)c3C3CC3)c2)c1F)C1CCCC1 [Example 3, 1-(3-{3-[Cyclopentyl(methyl)carbamoyl]-2-fluorophenyl}phenyl)-5-cyclopropyl-1H-pyrazole-4-carboxylic Acid] | – | 1000 to 10000 |
| 100 to 1000 | 1000 to 10000 | CN(C(=O)c1cccc(-c2cccc(-n3ncc(C(=O)O)c3C3CC3)c2)c1F)C1CCCCC1 [Example 5, 1-(3-{3-[Cyclohexyl(methyl)carbamoyl]-2-fluorophenyl}phenyl)-5-cyclopropyl-1H-pyrazole-4-carboxylic Acid] | – | 1000 to 10000 |
| 10 to 100 | 100 to 1000 | CN(CC1CCCC1)C(=O)c1cccc(-c2cccc(-n3ncc(C(=O)O)c3C3CC3)c2)c1F [Example 12, 1-(3-{3-[(Cyclopentylmethyl)(methyl)carbamoyl]-2-fluorophenyl}phenyl)-5-cyclopropyl-1H-pyrazole-4-carboxylic Acid] | – | 1000 to 10000 |

Reference: patent US10364256B2 (GlaxoSmithKline Intellectual Property Development Limited, priority 2015, dated 2019)
